Where a name gives a salt, the structure may show the parent alone. Read-outs that look alike come from different tables or passages of the source.
Tests used:
[1] = Pharmacokinetics after administration of the subject combination (steady state); conditions: for apparent elimination half-life: bupropion metabolites
[2] = Co-administration of paroxetine and the subject combination in healthy volunteers (Example 3)
Text: Co-administration of the SSRI paroxetine and the subject combination was studied in 29 healthy volunteers.

[3] = human, in vivo
[4] = Pharmacokinetics of the subject combination in moderate renal impairment (Example 1); conditions: moderate renal impairment (GFR 30-60 mL/min)
[5] = Food effect on pharmacokinetics of the subject combination; format: in vivo, human; conditions: subject combination administered with food
[6] = Pharmacokinetics of the subject combination in CYP2D6 poor metabolizers (Example 2)
Text: Approximately 7 to 10% of Caucasians and 3 to 8% of African Americans lack the capacity to metabolize CYP2D6 substrates and are classified as poor metabolizers.

[7] = cited from earlier work; for incidence of sedation (MOAA/S score <5): treatment-resistant depression

Work on `CC(NC(C)(C)C)C(O)c1cccc(Cl)c1` (stereo not shown) [erythrohydroxybupropion] yielded an apparent elimination half-life [1] of ~44 h.
For `CC(NC(C)(C)C)C(=O)c1cccc(Cl)c1.Cl` (racemic) [bupropion, (±)-1-(3-chlorophenyl)-2-[(1,1-dimethylethyl)amino]-1-propanone hydrochloride], the “increase in overall exposure when paroxetine is co-administered with the subject combination” value ([2]; human, in vivo) was “no effect”, the “increase in exposure versus matched controls with normal renal function” value [3] was “approximately 2 fold” and the “reduction in clearance versus matched controls with normal renal function” value [3] was 50%.
In the case of `Fc1ccc([C@@H]2CCNC[C@H]2COc2ccc3c(c2)OCO3)cc1` [paroxetine], the “increase in overall exposure of paroxetine when co-administered with the subject combination” value ([2]; human, in vivo) is reported as 1.2 fold.
With `C[C@H](NC(C)(C)C)[C@@H](O)c1cccc(Cl)c1` [threohydroxybupropion] the apparent elimination half-life [1] was ~33 h.
In the case of `COc1ccc2c(c1)[C@]13CCCC[C@@H]1[C@H](C2)N(C)CC3` [dextromethorphan, morphinan, 3-methoxy-17-methyl-, (9α, 13α, 14α), hydrobromide monohydrate], the “increase in overall exposure when paroxetine is co-administered with the subject combination” value ([2]; healthy volunteers) is reported as 2.5 fold, the “increase in exposure versus matched controls with normal renal function” value [4] is reported as “approximately 2 fold” and the “reduction in clearance versus matched controls with normal renal function” value [4] is reported as 50%. For the same compound, the “increase in mean elimination half-life versus dextromethorphan given without bupropion” value ([1]; 8 days of subject combination, extensive metabolizers) was “approximately 3 fold”, the “median Tmax” value ([1]; after administration of the subject combination) was “about 3 hours” and the “dose proportionality of AUC and Cmax at steady state” value ([1]; co-administered with bupropion, dextromethorphan 30 to 60 mg, bupropion 75 to 150 mg) was “nonlinear pharmacokinetics”. The mean elimination half-life ([1]; human, in vivo) was 22 h, the “decrease in AUC0-12 with food” value [5] was 14% and the “steady state plasma concentrations compared with non-poor metabolizers” value ([6]; 12 poor metabolizers in efficacy trials) was “generally higher”. For the same compound, the “increase in AUC0-12 compared to extensive metabolizers” value ([6]; CYP2D6 poor metabolizers) was ~3.4 fold and the “increase in Cmax compared to extensive metabolizers” value ([6]; CYP2D6 poor metabolizers) was ~3 fold.
For `CN[C@]1(c2ccccc2Cl)CCCCC1=O` [esketamine, Esketamine], the “incidence of sedation (MOAA/S score <5)” value ([7]; 56 mg + oral AD, patients <65 years, fixed-dose study) is listed as 50%, the “incidence of sedation (MOAA/S score <5)” value ([7]; 84 mg + oral AD, patients <65 years, fixed-dose study) is listed as 61% and the “incidence of sedation (MOAA/S score <5)” value ([7]; 28 to 84 mg + oral AD, patients ≥65 years, flexible-dose study) is listed as 49%. The “incidence of sedation (MOAA/S score<5) compared to placebo plus oral antidepressant” value ([7]; plus oral antidepressant, adults with MDD with acute suicidal ideation or behavior) was “higher incidence of sedation”.
In the case of `C[C@H]1NC(C)(C)CO[C@]1(O)c1cccc(Cl)c1` [hydroxybupropion], the apparent elimination half-life [1] is reported as “approximately 35 hours”.
